Data as given in patent US3995021A, “Antigens of 5,5'alkylphenyl barbituric acids and related hydantoin compounds” (Biological Developments, Inc., priority 1975, dated 1976).

System: antibodies raised with the product of Example 1
Experiment: Radioimmune assay: cross-reactivity of other barbituric acids (competitive inhibition of tritiated phenobarbital binding to antibody)
Conditions: at 50% inhibition, 4° C, 2 hours

| SMILES | Percent Cross-Reactivity [%] |
| --- | --- |
| CCC1(CCC(C)C)C(=O)NC(=O)NC1=O [Amobarbital] | 0.6 |
| CCCC(C)C1(CC)C(=O)NC(=O)NC1=O (stereo not shown) [Pentobarbital] | 2.2 |
| C=CCC1(C(C)CCC)C(=O)NC(=O)NC1=O (stereo not shown) [Secobarbital] | 1.8 |
| CCCC(C)C1(CC)C(=O)NC(=S)NC1=O (stereo not shown) [Thiopental] | 0.2 |
